According to patent US9487489B2, “Halogen-substituted pyrazole derivatives as pest-control agents” (BAYER CROPSCIENCE AKTIENGESELLSCHAFT, priority 2013, dated 2016):

Assays:
[1] = test system: adult cat fleas (Ctenocephalides felis); assay: Ctenocephalides felis in vitro contact test with adult cat fleas (T1); details: after 48 h
Method in brief: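 Test compound was dissolved in acetone p.a. (9 mg per 1 ml) and diluted as needed. 250 μl was spread evenly over the inner walls and floor of a 25 ml test tube by rotating on an orbital shaker for 2 h at 30 rpm. Once the solvent evaporated, 5-10 adult Ctenocephalides felis were added. Tubes were capped with a perforated plastic lid and kept horizontal at room temperature and ambient humidity.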

[2] = test system: caterpillars of the armyworm (Spodoptera frugiperda); assay: Spodoptera frugiperda spray test (SPODFR); type: in vivo; details: maize leaf discs, after 7 days
Method in brief: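 Maize leaf discs sprayed with compound in acetone/DMF with alkylaryl polyglycol ether emulsifier (1000 ppm) in water, dried, then infested with armyworm caterpillars. Mortality (%) scored after 7 days; 100% = all caterpillars killed, 0% = none killed.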

[3] = test system: L1 larvae of the Australian sheep blowfly (Lucilia cuprina); assay: Lucilia cuprina test (LUCICU); type: in vivo; details: application rate 100 ppm; after 2 days
Method in brief: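 About 20 L1 larvae placed in a vessel with minced horsemeat plus compound (DMSO concentrate diluted with water to the desired concentration). Kill in % scored after 2 days, 100% meaning all larvae dead.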

[4] = test system: greenhouse red spider mite (Tetranychus urticae); assay: Tetranychus urticae spray test, OP-resistant (TETRUR); type: in vivo; details: bean leaf discs, after 6 days
Method in brief: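 Bean leaf discs carrying all stages of OP-resistant Tetranychus urticae were sprayed with compound formulated in acetone/dimethylformamide and diluted in water with 1000 ppm alkylaryl polyglycol ether emulsifier. Mortality (% efficacy, 100% = all mites killed) scored after 6 days.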

[5] = test system: adult houseflies (Musca domestica); assay: Musca domestica test (MUSCDO); type: in vivo; details: application rate 100 ppm; after 2 days
Procedure: F. Musca domestica Test (MUSCDO)
Solvent: dimethyl sulphoxide
To produce a suitable preparation of active compound, 10 mg of active compound are mixed with 0.5 ml of dimethyl sulphoxide, and the concentrate is diluted with water to the desired concentration.
Vessels containing a sponge treated with sugar solution and the active compound preparation of the desired concentration are populated with 10 adult houseflies (Musca domestica).
After 2 days, the kill in % is determined. 100% means that all of the flies have been killed; 0% means that none of the flies have been killed.

[6] = test system: engorged adult female cattle ticks (Boophilus microplus); assay: Boophilus microplus injection test (BOOPMI Inj); type: in vivo; details: application rate 20 μg/animal; injection into abdomen; assessed after 7 days
Method in brief: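 DMSO solution of compound (1 μl) injected into the abdomen of 5 engorged adult female ticks, which are then held in a climate-controlled room. After 7 days, efficacy is scored from laying of fertile eggs, with unclear eggs kept until larval hatch (~42 days); 100% means no fertile eggs, 0% all fertile.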

[7] = test system: adult cat fleas (Ctenocephalides felis); assay: Ctenocephalides felis oral test (CTECFE); type: in vivo; details: application rate 100 ppm in citrated cattle blood; after 2 days
Method in brief: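 About 20 unfed adult cat fleas fed through parafilm membrane on citrated cattle blood containing compound (DMSO stock diluted in blood to test concentration). Kill % scored after 2 days (100% = all fleas dead).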

[8] = test system: larvae of the mustard beetle (Phaedon cochleariae); assay: Phaedon cochleariae spray test (PHAECO); type: in vivo; details: Chinese cabbage leaf discs, after 7 days
Method in brief: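 Compound dissolved in acetone/dimethylformamide with alkylaryl polyglycol ether emulsifier, made up in water containing 1000 ppm emulsifier, then diluted to test concentrations and sprayed against mustard beetle larvae. Efficacy (% larvae killed) scored after 7 days.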

[9] = test system: adult dog ticks (Rhipicephalus sanguineus); assay: Rhipicephalus sanguineus in vitro contact test with adult brown dog ticks (T2); details: after 48 h
Procedure: T2. Rhipicephalus sanguineus-in vitro Contact Tests with Adult Brown Dog Ticks
For the coating of the test tubes, initially 9 mg of active compound are dissolved in 1 ml of acetone p.a. and then diluted with acetone p.a. to the desired concentration. By turning and rocking on an orbital shaker (2 h of rocking rotation at 30 rpm), 250 μl of the solution are distributed homogeneously on the internal walls and the floor of a 25 ml test tube. At 900 ppm active compound solution and 44.7 cm^2 internal surface, an area dose of 5 μg/cm^2 is achieved for homogeneous distribution.
After evaporation of the solvent, the tubes are populated with 5-10 adult dog ticks (Rhipicephalus sanguineus), sealed with a perforated plastic lid and incubated in a horizontal position in the dark at room temperature and ambient humidity. After 48 h, the efficacy is determined. To this end, the ticks are knocked to the floor of the tube and incubated on a hotplate at 45-50° C. for at most 5 min Ticks which remain motionless on the floor or move in an uncoordinated manner such that they are not able to deliberately avoid the heat by climbing upwards are considered to be dead or moribund.
An efficacy of 100% means that all ticks were dead or moribund. 0% efficacy means that none of the ticks had been damaged.

[10] = logP determination by HPLC on a reversed-phase column (C18), EEC Directive 79/831 Annex V.A8; type: physicochemical; details: HPLC on reversed-phase column (C18), acetonitrile/water with formic acid, EEC Directive 79/831 Annex V.A8
Method in brief: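 Retention on a C18 reversed-phase column (Zorbax Eclipse Plus, 1.8 micron) was used, eluting with acetonitrile/water, each containing formic acid. The gradient ran from 10% to 95% acetonitrile over 4.25 min, then held 1.25 min, at 55° C and 2.0 ml/min, with MS detection.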

SMILES | efficacy (dead or moribund fleas) ([1]; application rate 1 μg/cm^2) [%] | efficacy (dead or moribund fleas) ([1]; application rate 5 μg/cm^2) [%] | efficacy in % ([2]; application rate 500 g/ha) [%] | efficacy (kill in %) [3] [%] | efficacy in % ([4]; application rate 500 g/ha) [%] | efficacy (kill in %) [5] [%] | efficacy (laying of fertile eggs) [6] [%] | efficacy (kill in %) [7] [%] | efficacy in % ([8]; application rate 500 g/ha) [%] | efficacy (dead or moribund ticks) ([9]; application rate 1 μg/cm^2) [%] | efficacy (dead or moribund ticks) ([9]; application rate 5 μg/cm^2) [%] | efficacy in % ([2]; application rate 100 g/ha) [%] | efficacy in % ([4]; application rate 100 g/ha) [%] | logP [10] | efficacy in % ([8]; application rate 100 g/ha) [%]
CC(NC(=O)c1cc(-c2cnn(-c3c(C(F)(F)F)c(C(F)(F)C(F)(F)F)nn3C)c2)ccc1Cl)C(N)=O (stereo not drawn) [Ic-154] | 100 | 80 | 100 | 100 | 100 | 90 | 100 | 100 | 100 |  |  |  |  |  | 
Cn1nc(C(F)(F)C(F)(F)F)c(C(F)(F)F)c1-n1cc(-c2ccc(Cl)c(C(=O)Nc3ccccc3)c2)cn1 [Ic-136] |  |  | 100 | 100 | 100 | 90 | 100 | 100 | 100 |  |  |  |  |  | 
Cn1nc(C(F)(F)C(F)(F)F)c(C(F)(F)F)c1-n1cc(-c2cc(Cl)cc(C(=O)NC3(C#N)CC3)c2)cn1 [Ic-43] |  |  | 100 | 100 |  | 100 | 100 | 100 | 100 | 100 |  |  |  |  | 
Cn1nc(C(F)(F)C(F)(F)F)c(C(F)(F)F)c1-n1cc(-c2ccc(Cl)c(C(=O)NC3CC3)c2F)cn1 [Ic-106] |  |  | 83 | 100 |  | 100 | 100 | 100 | 100 |  | 100 |  |  |  | 
Cn1nc(C(F)(F)C(F)(F)F)c(C(F)(F)F)c1-n1cc(-c2ccc(Cl)c(C(=O)Nc3ccccn3)c2)cn1 [Ic-140] | 100 | 100 | 100 | 100 | 100 | 90 | 100 | 100 | 100 |  |  |  |  |  | 
Cn1nc(C(F)(F)C(F)(F)F)c(C(F)(F)F)c1-n1cc(-c2cc(Cl)cc(C(=O)NC3CC3)c2)cn1 [Ic-44] |  |  | 100 | 100 | 80 | 80 | 100 | 100 | 100 |  |  |  |  |  | 
Cn1nc(C(F)(F)C(F)(F)F)c(C(F)(F)F)c1-n1cc(-c2cc(C(=O)NC3CC3)cc(F)c2F)cn1 [Ic-61] |  |  |  | 100 |  | 80 | 100 | 100 | 100 |  | 80 | 100 |  |  | 
Cn1nc(C(F)(F)C(F)(F)F)c(C(F)(F)F)c1-n1cc(-c2ccc(F)c(C(=O)NC3CC3)c2F)cn1 [Ic-174] |  |  | 100 | 100 |  | 100 | 100 | 100 | 100 | 100 | 100 |  |  |  | 
Cn1nc(C(F)(F)C(F)(F)F)c(C(F)(F)F)c1-n1cc(-c2cc(C(=O)NC3CC3)ccc2Cl)cn1 [Ic-46] |  |  | 100 | 100 |  | 100 | 100 | 100 | 100 | 100 |  |  |  |  | 
Cn1nc(C(F)(F)C(F)(F)F)c(C(F)(F)F)c1-n1cc(-c2cc(C(=O)NC3(C#N)CC3)cc(F)c2F)cn1 [Ic-64] |  |  |  | 100 |  | 80 | 100 | 100 | 100 |  |  | 100 | 100 |  | 
Cc1nn(-c2c(C(F)(F)F)c(C(F)(F)C(F)(F)F)nn2C)cc1-c1ccc(Cl)c(C(=O)NC2CC2)c1 [Ic-12] | 100 | 100 |  | 100 |  | 100 | 100 | 100 |  |  |  | 100 |  | 3.97 | 100
Cn1nc(C(F)(F)C(F)(F)F)c(C(F)(F)F)c1-n1cc(-c2ccnc(C(=O)NC3(C#N)CC3)c2)cn1 [Ic-76] |  |  | 100 | 100 | 80 | 80 | 100 | 100 | 100 |  |  |  |  |  | 
Cn1nc(C(F)(F)C(F)(F)F)c(C(F)(F)F)c1-n1cc(-c2cc(F)cc(C(=O)NC3CC3)c2)cn1 [Ic-39] |  |  | 100 | 100 |  | 100 | 100 | 100 | 100 |  |  | 100 | 100 |  | 
